Values joined by “and” are separate entries in the source; they are usually repeats but may differ in a detail not shown here. Equal entries are not always repeated. Toxic doses and inconclusive results are not listed.
System: P388 leukemia ip, CD2F1 mice, survival T/C
Assay: NCI In Vivo Anticancer Drug Screen. Data for tumor model P388 Leukemia (intraperitoneal) in CD2F1 (CDF1) mice
Conditions: endpoint: median survival time, higher = longer survival
Summary of the method: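 Mice carrying the transplanted tumor received test compound or vehicle. Survival was recorded in each group, and the value is the treated-group measurement divided by that of the vehicle-treated control group.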

[1] = dose: 50.0 mg/kg/injection, schedule: Q01DX005 (ip), vehicle: Klucel (hydroxypropylcellulose) (HPC)
[2] = dose: 100.0 mg/kg/injection, schedule: Q01DX005 (ip), vehicle: Klucel (hydroxypropylcellulose) (HPC)
[3] = dose: 200.0 mg/kg/injection, schedule: Q01DX005 (ip), vehicle: Klucel (hydroxypropylcellulose) (HPC)
[4] = dose: 12.5 mg/kg/injection, schedule: Q01DX009 (ip), vehicle: saline
[5] = dose: 25.0 mg/kg/injection, schedule: Q01DX009 (ip), vehicle: saline
[6] = dose: 50.0 mg/kg/injection, schedule: Q01DX009 (ip), vehicle: saline
[7] = dose: 50.0 mg/kg/injection, schedule: Q01DX009 (ip), vehicle: saline with Tween-80
[8] = dose: 100.0 mg/kg/injection, schedule: Q01DX009 (ip), vehicle: saline with Tween-80
[9] = dose: 25.0 mg/kg/injection, schedule: Q01DX009 (ip), vehicle: saline with Tween-80
[10] = dose: 100.0 mg/kg/injection, schedule: Q04DX003 (ip), vehicle: saline with Tween-80
[11] = dose: 200.0 mg/kg/injection, schedule: Q04DX003 (ip), vehicle: saline with Tween-80

## COc1cc(OC)c(NC(=S)Nc2cc(C)ccc2OC)cc1Cl
dose: 6.25 mg/kg/injection, schedule: Q01DX009 (ip), vehicle: DMSO
  T/C: 94 % of control
dose: 12.5 mg/kg/injection, schedule: Q01DX009 (ip), vehicle: DMSO
  T/C: 91 % of control
dose: 25.0 mg/kg/injection, schedule: Q01DX009 (ip), vehicle: DMSO
  T/C: 91 % of control
dose: 50.0 mg/kg/injection, schedule: Q01DX009 (ip), vehicle: DMSO
  T/C: 91 % of control and 93 % of control
dose: 100.0 mg/kg/injection, schedule: Q01DX009 (ip), vehicle: DMSO
  T/C: 87 % of control

## O=C(NNCNNC(=O)c1ccncc1)c1ccncc1
[1]
  T/C: 100 % of control
[2]
  T/C: 100 % of control
[3]
  T/C: 96 % of control

## COc1ccc2c(C)cc(N/N=C/c3ccccc3)nc2c1
[1]
  T/C: 89 % of control
[2]
  T/C: 98 % of control
[3]
  T/C: 98 % of control

## OCCN1CCN(CCCN2c3cscc3Sc3ccc(Cl)cc32)CC1
[1]
  T/C: 94 % of control and 95 % of control
[2]
  T/C: 101 % of control

## O=C1C(Cl)=C(NCCCN(CCO)CCO)C(=O)c2ccccc21
[4]
  T/C: 100 % of control
[5]
  T/C: 107 % of control and 88 % of control
[6]
  T/C: 107 % of control and 108 % of control

## CCC[CH2][Sn]1([CH2]CCC)[O]OC2(CCCCC2)[O]1
dose: 1.25 mg/kg/injection, schedule: Q01DX009 (ip), vehicle: saline with Tween-80
  T/C: 113 % of control
dose: 2.5 mg/kg/injection, schedule: Q01DX009 (ip), vehicle: saline with Tween-80
  T/C: 109 % of control

## O=C(Nc1ccc(N=Nc2ccc3cc(S(=O)(=O)O)cc(S(=O)(=O)O)c3c2)cc1)c1ccc(N=Nc2c(O)ccc3cc(S(=O)(=O)O)cc(S(=O)(=O)O)c23)cc1
dose: 50.0 mg/kg/injection, schedule: Q01DX005 (ip), vehicle: saline
  T/C: 104 % of control
dose: 100.0 mg/kg/injection, schedule: Q01DX005 (ip), vehicle: saline
  T/C: 99 % of control
dose: 200.0 mg/kg/injection, schedule: Q01DX005 (ip), vehicle: saline
  T/C: 98 % of control

## Cc1ccc(C2c3c(c4ccccc4n3C(=O)c3ccccc3)C(=O)NN2C(=O)c2ccccc2)cc1 (stereo not drawn)
[1]
  T/C: 97 % of control
[2]
  T/C: 90 % of control
[3]
  T/C: 95 % of control

## COC(=O)NN(C(=O)OC)C12CCCCC1N(C(=O)OC)N(C(=O)OC)c1ccccc12 (stereo not drawn)
dose: 100.0 mg/kg/injection, schedule: Q01DX001 (ip), vehicle: Klucel (hydroxypropylcellulose) (HPC)
  T/C: 103 % of control
dose: 200.0 mg/kg/injection, schedule: Q01DX001 (ip), vehicle: Klucel (hydroxypropylcellulose) (HPC)
  T/C: 98 % of control
dose: 400.0 mg/kg/injection, schedule: Q01DX001 (ip), vehicle: Klucel (hydroxypropylcellulose) (HPC)
  T/C: 100 % of control

## [B-][N+]12CC[N+]([B-])(CC1)CC2
dose: 0.06 mg/kg/injection, schedule: Q04DX003 (ip), vehicle: other
  T/C: 100 % of control
dose: 0.13 mg/kg/injection, schedule: Q04DX003 (ip), vehicle: other
  T/C: 100 % of control
dose: 0.25 mg/kg/injection, schedule: Q04DX003 (ip), vehicle: other
  T/C: 100 % of control
dose: 15.6 micrograms/kg/injection, schedule: Q01DX009 (ip), vehicle: other
  T/C: 100 % of control
dose: 31.3 micrograms/kg/injection, schedule: Q01DX009 (ip), vehicle: other
  T/C: 100 % of control
dose: 62.5 micrograms/kg/injection, schedule: Q01DX009 (ip), vehicle: other
  T/C: 100 % of control
dose: 62.5 micrograms/kg/injection, schedule: Q01DX009 (ip), vehicle: saline
  T/C: 87 % of control
dose: 125.0 micrograms/kg/injection, schedule: Q01DX009 (ip), vehicle: saline
  T/C: 104 % of control

## COc1cc(C2C(C)=COc3cc4c(cc32)OCO4)cc(OC)c1OC (stereo not drawn)
dose: 60.0 mg/kg/injection, schedule: Q01DX005 (ip), vehicle: saline with Tween-80
  T/C: 93 % of control
dose: 120.0 mg/kg/injection, schedule: Q01DX005 (ip), vehicle: saline with Tween-80
  T/C: 100 % of control
dose: 240.0 mg/kg/injection, schedule: Q01DX005 (ip), vehicle: saline with Tween-80
  T/C: 93 % of control

## CCN(CC)CCNC(=O)c1nn(-c2ccc(C)cc2)c2c1N(C)S(=O)(=O)c1ccccc1-2
dose: 100.0 mg/kg/injection, schedule: Q01DX001 (ip), vehicle: saline with Tween-80
  T/C: 100 % of control
dose: 200.0 mg/kg/injection, schedule: Q01DX001 (ip), vehicle: saline with Tween-80
  T/C: 97 % of control
dose: 400.0 mg/kg/injection, schedule: Q01DX001 (ip), vehicle: saline with Tween-80
  T/C: 97 % of control

## CC(C)=CCCC(C)(OC1OC(CO)C(O)C(O)C1O)C1CCC2(C)C1C(O)CC1C3(C)CCC(O)C(C)(C)C3C(OC3OC(CO)C(O)C(O)C3OC3OC(C)C(O)C(O)C3O)CC12C (stereo not drawn) (tested in a mixture with another compound)
dose: 18.75 mg/kg/injection, schedule: Q01DX009 (ip), vehicle: Klucel (hydroxypropylcellulose) (HPC)
  T/C: 101 % of control
dose: 37.5 mg/kg/injection, schedule: Q01DX009 (ip), vehicle: Klucel (hydroxypropylcellulose) (HPC)
  T/C: 101 % of control
dose: 75.0 mg/kg/injection, schedule: Q01DX009 (ip), vehicle: Klucel (hydroxypropylcellulose) (HPC)
  T/C: 100 % of control
dose: 150.0 mg/kg/injection, schedule: Q01DX009 (ip), vehicle: Klucel (hydroxypropylcellulose) (HPC)
  T/C: 100 % of control

## CCOC(=O)c1ccc(N2C(=O)C=CC2=O)cc1
dose: 3.12 mg/kg/injection, schedule: Q01DX009 (ip), vehicle: saline
  T/C: 98 % of control
dose: 6.25 mg/kg/injection, schedule: Q01DX009 (ip), vehicle: saline
  T/C: 98 % of control
[4]
  T/C: 96 % of control

## Clc1ccc(N=Cc2ccc(C=Nc3ccc(Cl)cc3Cl)cc2)c(Cl)c1
[4]
  T/C: 94 % of control
[5]
  T/C: 94 % of control
[6]
  T/C: 100 % of control and 105 % of control
dose: 100.0 mg/kg/injection, schedule: Q01DX009 (ip), vehicle: saline
  T/C: 88 % of control
dose: 200.0 mg/kg/injection, schedule: Q01DX009 (ip), vehicle: saline
  T/C: 92 % of control

## Cc1cn[nH]c(=O)c1
[7]
  T/C: 99 % of control
[8]
  T/C: 99 % of control
dose: 200.0 mg/kg/injection, schedule: Q01DX009 (ip), vehicle: saline with Tween-80
  T/C: 99 % of control

## OC(CNc1ccc(CSc2ccccc2)cc1)c1ccccc1 (stereo not drawn)
dose: 50.0 mg/kg/injection, schedule: Q01DX009 (ip), vehicle: saline + Tween-80 + alcohol
  T/C: 101 % of control and 104 % of control
dose: 100.0 mg/kg/injection, schedule: Q01DX009 (ip), vehicle: saline + Tween-80 + alcohol
  T/C: 99 % of control
dose: 200.0 mg/kg/injection, schedule: Q01DX009 (ip), vehicle: saline + Tween-80 + alcohol
  T/C: 99 % of control and 102 % of control
dose: 400.0 mg/kg/injection, schedule: Q01DX009 (ip), vehicle: saline + Tween-80 + alcohol
  T/C: 104 % of control and 90 % of control

## COC(=O)CC1(C(=O)OC)C2=C(CCSC2)N2CCCC21 (stereo not drawn)
dose: 3.75 mg/kg/injection, schedule: Q01DX009 (ip), vehicle: Klucel (hydroxypropylcellulose) (HPC)
  T/C: 97 % of control
dose: 7.5 mg/kg/injection, schedule: Q01DX009 (ip), vehicle: Klucel (hydroxypropylcellulose) (HPC)
  T/C: 97 % of control
dose: 15.0 mg/kg/injection, schedule: Q01DX009 (ip), vehicle: Klucel (hydroxypropylcellulose) (HPC)
  T/C: 100 % of control
dose: 30.0 mg/kg/injection, schedule: Q01DX009 (ip), vehicle: Klucel (hydroxypropylcellulose) (HPC)
  T/C: 100 % of control

## Nc1ncc([N+](=O)[O-])c(Cl)n1
dose: 12.5 mg/kg/injection, schedule: Q01DX009 (ip), vehicle: saline with Tween-80
  T/C: 105 % of control
[9]
  T/C: 105 % of control
[7]
  T/C: 105 % of control

## COC1=C(OC)C(=O)C([Si](C)(C)C)=C(CO)C1=O
dose: 7.5 mg/kg/injection, schedule: Q01DX005 (ip), vehicle: saline with Tween-80
  T/C: 103 % of control
dose: 15.0 mg/kg/injection, schedule: Q01DX005 (ip), vehicle: saline with Tween-80
  T/C: 105 % of control

## N#C/C(=C\C=C\c1ccccc1)C(N)=O
dose: 50.0 mg/kg/injection, schedule: Q04DX003 (ip), vehicle: saline with Tween-80
  T/C: 104 % of control
[10]
  T/C: 104 % of control
[11]
  T/C: 109 % of control

## CCC(C)OC(=S)SSC(=S)OC(C)CC (stereo not drawn)
dose: 25.0 mg/kg/injection, schedule: Q01DX009 (ip), vehicle: suspension in saline
  T/C: 105 % of control
dose: 50.0 mg/kg/injection, schedule: Q01DX009 (ip), vehicle: suspension in saline
  T/C: 96 % of control
dose: 100.0 mg/kg/injection, schedule: Q01DX009 (ip), vehicle: suspension in saline
  T/C: 98 % of control
dose: 200.0 mg/kg/injection, schedule: Q01DX009 (ip), vehicle: suspension in saline
  T/C: 109 % of control

## O=C(/C=C/c1cccs1)c1ccc(O)c(C(=O)O)c1
[9]
  T/C: 96 % of control
[7]
  T/C: 105 % of control
[8]
  T/C: 103 % of control

## CSc1nc(Cl)c(Br)c(Sc2nc(N)nc3nc[nH]c23)n1
[7]
  T/C: 122 % of control
[8]
  T/C: 109 % of control
[10]
  T/C: 118 % of control
[11]
  T/C: 150 % of control

Source: PubChem BioAssay AID330 (DTP/NCI, 2004)
